Test: Tolerability after i.p. injection
Type: in vivo
Conditions: i.p. injection at 100 mg/kg animal body
Source text: Compounds of formula I are well tolerated at dosages required for use in accordance with the present invention.

C[C@@H](O)[C@@H]1NC(=O)[C@H](CCCCN)NC(=O)[C@@H](Cc2c[nH]c3ccccc23)NC(=O)[C@H](Cc2ccccc2)NC(=O)[C@@H](NC(=O)[C@H](N)Cc2ccccc2)CSSC[C@@H](C(=O)N[C@H](CO)[C@@H](C)O)NC1=O [octreotide]
increase in GOT: no increase in GOT
lethality: no increase in GOT or any lethality

Reference: patent EP0671413A1, “Somatostatin analogs for preventing NSAID-induced ulcers” (SANDOZ LTD, priority 1994, dated 1995)
